# Patent publication US10851067B2, “Kv7 channel activators compositions and methods of use” (Knopp Biosciences LLC, priority 2018, dated 2020)
# Biological target: Kv7.2/7.3 (Homo sapiens, UniProt O43525+O43526)
# Experiment: Kv7.2/7.3 Activation Assay, QPatch single concentration screen
# Format: cell-based
# Parameters: host or cells: HEK cells, tetracycline-inducible expression; key: 1.2-2.9 (+); 3-3.9 (++); >4 (+++) fold increase over baseline; O represents open channel at holding potential
# Details: Kv7.2/Kv7.3 co-expressing HEK cells, compound concentration 3 μM, steady-state current at end of 2 s pulse to −30 mV
# Summary of the method: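 Tetracycline-induced HEK cells expressing human Kv7.2/7.3, recorded 24 h post-induction by automated planar patch clamp. From −80 mV, 2 s steps to −30 mV then 100 ms to −120 mV; compound tested at 3 μM (0.1% DMSO). Steady-state current at end of −30 mV step gives fold increase over baseline.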
row,Kv7.2/7.3 Activity: increase over baseline in current,SMILES
1,+ (1.2-2.9 (+)),"CC1(n2c(NC(=O)CC(O)(CF)CF)nc3ccc(OC(F)F)c(F)c32)CCC1 [Example 423, N-(6-(difluoromethoxy)-7-fluoro-1-(1-methylcyclobutyl)-1H-benzo[d]imidazol-2-yl)-4-fluoro-3-(fluoromethyl)-3-hydroxybutanamide]"
2,++ (3-3.9 (++)),"C[C@H](C(=O)Nc1nc2c(F)cc(C(C)(C)O)cc2n1C1CCC1)C(C)(C)C [Example 443, (S)-N-(1-cyclobutyl-4-fluoro-6-(2-hydroxypropan-2-yl)-1H-benzo[d]imidazol-2-yl)-2,3,3-trimethylbutanamide]"
3,++ (3-3.9 (++)),"CC(O)(CC(=O)Nc1nc2ccc(C#N)cc2n1C1(C)CCC1)c1ccc(F)cc1F (single isomer, unassigned) [Example 430, N-(6-cyano-1-(1-methylcyclobutyl)-1H-benzo[d]imidazol-2-yl)-3-(2,4-difluorophenyl)-3-hydroxybutanamide]"
4,++ (3-3.9 (++)),"CC(C)(C)CC(=O)Nc1nc2c(F)cc(C#N)c(F)c2n1C(C)(C)C [Example 457, N-(1-(tert-butyl)-6-cyano-4,7-difluoro-1H-benzo[d]imidazol-2-yl)-3,3-dimethylbutanamide]"
5,O,"CC(C)(C)CC(=O)Nc1nc2cc(F)c(C3(O)CCC3)c(F)c2n1C1CCC1 [Example 424, N-(1-cyclobutyl-5,7-difluoro-6-(1-hydroxycyclobutyl)-1H-benzo[d]imidazol-2-yl)-3,3-dimethylbutanamide]"
6,+ (1.2-2.9 (+)),"CC(O)(CC(=O)Nc1nc2ccc(C#N)cc2n1C1(C)CCC1)c1c(F)cccc1F (single isomer, unassigned) [Example 467, N-(6-cyano-1-(1-methylcyclobutyl)-1H-benzo[d]imidazol-2-yl)-3-(2,6-difluorophenyl)-3-hydroxybutanamide]"
7,+ (1.2-2.9 (+)),"CC(C)(C)CC(=O)Nc1nc2c(F)cc(C#N)cc2n1C(C)(C)C [Example 420, N-(1-(tert-butyl)-6-cyano-4-fluoro-1H-benzo[d]imidazol-2-yl)-3,3-dimethylbutanamide]"
8,+ (1.2-2.9 (+)),"CC(O)(CC(=O)Nc1nc2ccc(C#N)cc2n1CC1CC1)c1ccccc1 (single isomer, unassigned) [Example 344, N-(6-cyano-1-(cyclopropylmethyl)-1H-benzo[d]imidazol-2-yl)-3-hydroxy-3-phenylbutanamide]"
9,++ (3-3.9 (++)),"CC(C)(CC(=O)Nc1nc2cc(F)c(OC(F)F)cc2n1C1(C)CCC1)C1CC1 [Example 367, 3-cyclopropyl-N-(6-(difluoromethoxy)-5-fluoro-1-(1-methylcyclobutyl)-1H-benzo[d]imidazol-2-yl)-3-methylbutanamide]"
10,+ (1.2-2.9 (+)),"CC(C)(C)CC(=O)Nc1nc2cc(C(C)(C)O)c(C(F)(F)F)cc2n1C1CCC1 [Example 450, N-(1-cyclobutyl-5-(2-hydroxypropan-2-yl)-6-(trifluoromethyl)-1H-benzo[d]imidazol-2-yl)-3,3-dimethylbutanamide]"
11,++ (3-3.9 (++)),"CC(C)(C)CC(=O)Nc1nc2ccc(OCC(F)(F)F)c(F)c2n1C1CCC1 [Example 334, N-(1-cyclobutyl-7-fluoro-6-(2,2,2-trifluoroethoxy)-1H-benzo[d]imidazol-2-yl)-3,3-dimethylbutanamide]"
12,+ (1.2-2.9 (+)),"CC(C)(O)c1c(F)cc2nc(NC(=O)CC(C)(C)C(F)(F)F)n(C3CCC3)c2c1F [Example 470, N-(1-cyclobutyl-5,7-difluoro-6-(2-hydroxypropan-2-yl)-1H-benzo[d]imidazol-2-yl)-4,4,4-trifluoro-3,3-dimethylbutanamide]"
13,++ (3-3.9 (++)),"CC(O)(CC(=O)Nc1nc2ccc(OC(F)F)cc2n1C(C)(C)C)c1ccccc1 (single isomer, unassigned) [Example 418, N-(1-(tert-butyl)-6-(difluoromethoxy)-1H-benzo[d]imidazol-2-yl)-3-hydroxy-3-phenylbutanamide]"
14,++ (3-3.9 (++)),"CC(C)(CC(=O)Nc1nc2ccc(C#N)cc2n1C(C)(C)C)C1CC1 [Example 354, N-(1-(tert-butyl)-6-cyano-1H-benzo[d]imidazol-2-yl)-3-cyclopropyl-3-methylbutanamide]"
15,++ (3-3.9 (++)),"CC(C)(C)CC(=O)Nc1nc2ccc(N3CC(F)(F)C3)c(F)c2n1C1CCC1 [Example 475, N-(1-cyclobutyl-6-(3,3-difluoroazetidin-1-yl)-7-fluoro-1H-benzo[d]imidazol-2-yl)-3,3-dimethylbutanamide]"
16,++ (3-3.9 (++)),"CC(C)(C)CC(=O)Nc1nc2cc(F)c(C(C)(C)O)c(F)c2n1C1CCC1 [Example 362, N-(1-cyclobutyl-5,7-difluoro-6-(2-hydroxypropan-2-yl)-1H-benzo[d]imidazol-2-yl)-3,3-dimethylbutanamide]"
17,O,"CC(C)(C)CC(=O)Nc1nc2ccc(C3(O)CCC3)c(F)c2n1C1CCC1 [Example 451, N-(1-cyclobutyl-7-fluoro-6-(1-hydroxycyclobutyl)-1H-benzo[d]imidazol-2-yl)-3,3-dimethylbutanamide]"
18,++ (3-3.9 (++)),"CC1(n2c(NC(=O)CC(C)(C)C(F)(F)F)nc3ccc(C#N)cc32)CCC1 [Example 361, N-(6-cyano-1-(1-methylcyclobutyl)-1H-benzo[d]imidazol-2-yl)-4,4,4-trifluoro-3,3-dimethylbutanamide]"
19,+ (1.2-2.9 (+)),"CC1(n2c(NC(=O)CC(C)(C)C(F)(F)F)nc3ccc(OC(F)F)cc32)CCC1 [Example 366, N-(6-(difluoromethoxy)-1-(1-methylcyclobutyl)-1H-benzo[d]imidazol-2-yl)-4,4,4-trifluoro-3,3-dimethylbutanamide]"
20,++ (3-3.9 (++)),"CC1(C)C[C@@H]1C(=O)Nc1nc2c(F)cc(C#N)cc2n1C(C)(C)C [Example 372, (S)-N-(1-(tert-butyl)-6-cyano-4-fluoro-1H-benzo[d]imidazol-2-yl)-2,2-dimethylcyclopropane-1-carboxamide]"
21,++ (3-3.9 (++)),"CC(C)(O)c1ccc2nc(NC(=O)CC3CC(F)(F)C3(F)F)n(C3CCC3)c2c1 (single isomer, unassigned) [Example 446, N-(1-cyclobutyl-6-(2-hydroxypropan-2-yl)-1H-benzo[d]imidazol-2-yl)-2-(2,2,3,3-tetrafluorocyclobutyl)acetamide]"
22,+ (1.2-2.9 (+)),"CC(C)(CC(=O)Nc1nc2cc(F)c(OC(F)F)cc2n1C1CCC1)C1CC1 [Example 363, N-(1-cyclobutyl-6-(difluoromethoxy)-5-fluoro-1H-benzo[d]imidazol-2-yl)-3-cyclopropyl-3-methylbutanamide]"
23,O,"C[C@@H](CC(=O)Nc1nc2ccc(C(C)(C)O)cc2n1C1CCC1)c1ccccc1 [Example 369, (S)-N-(1-cyclobutyl-6-(2-hydroxypropan-2-yl)-1H-benzo[d]imidazol-2-yl)-3-phenylbutanamide]"
24,O,"CC(C)(O)c1ccc2nc(NC(=O)Cc3cccc(F)c3)n(C3(C)CCC3)c2c1 [Example 435, 2-(3-fluorophenyl)-N-(6-(2-hydroxypropan-2-yl)-1-(1-methylcyclobutyl)-1H-benzo[d]imidazol-2-yl)acetamide]"
25,+ (1.2-2.9 (+)),"COc1cccc2nc(NC(=O)CC(C)(O)c3ccccc3)n(C3CCC3)c12 (single isomer, unassigned) [Example 442, N-(1-cyclobutyl-7-methoxy-1H-benzo[d]imidazol-2-yl)-3-hydroxy-3-phenylbutanamide]"
26,++ (3-3.9 (++)),"CC(C)(C)CC(=O)Nc1nc2c(OC(F)F)cc(C#N)cc2n1C1(C)CCC1 [Example 381, N-(6-cyano-4-(difluoromethoxy)-1-(1-methylcyclobutyl)-1H-benzo[d]imidazol-2-yl)-3,3-dimethylbutanamide]"

row,SMILES,Kv7.2/7.3 Activity: increase over baseline in current
1,"CC(C)(CC(=O)Nc1nc2c(F)cc(C#N)cc2n1C(C)(C)C)C1CC1 [Example 482, N-(1-(tert-butyl)-6-cyano-4-fluoro-1H-benzo[d]imidazol-2-yl)-3-cyclopropyl-3-methylbutanamide]",+++ (>4 (+++) fold increase over baseline)
2,"CC(C)(C)CC(=O)Nc1nc2ccc(OC(F)F)cc2n1C(C)(C)C [Example 393, N-(1-(tert-butyl)-6-(difluoromethoxy)-1H-benzo[d]imidazol-2-yl)-3,3-dimethylbutanamide]",+++ (>4 (+++) fold increase over baseline)
3,"COc1cc(F)c2nc(NC(=O)CC(C)(C)C)n(C3CCC3)c2c1 [Example 469, N-(1-cyclobutyl-4-fluoro-6-methoxy-1H-benzo[d]imidazol-2-yl)-3,3-dimethylbutanamide]",+++ (>4 (+++) fold increase over baseline)
4,"COc1cccc2nc(NC(=O)CC(C)(C)C3CC3)n(C3CCC3)c12 [Example 458, N-(1-cyclobutyl-7-methoxy-1H-benzo[d]imidazol-2-yl)-3-cyclopropyl-3-methylbutanamide]",+++ (>4 (+++) fold increase over baseline)
5,"COc1ccc2nc(NC(=O)CC(C)(C)C)n(C3CCC3)c2c1F [Example 429, N-(1-cyclobutyl-7-fluoro-6-methoxy-1H-benzo[d]imidazol-2-yl)-3,3-dimethylbutanamide]",+++ (>4 (+++) fold increase over baseline)
